Measurements from ChEMBL document CHEMBL4507319 (2021).

How the values were obtained:
[1] = biological target: Beta-2 adrenergic receptor (Homo sapiens) (UniProt P07550); settings: Compound concentration 10.0 uM
NCI-H520 = assay: NCI- H520 cell line Proliferation assay; assay type: functional, Homo sapiens; settings: time 3 day
[2] = biological target: Tau-tubulin kinase 1 (Homo sapiens) (UniProt Q5TCY1); assay: TTBK1(h) Eurofins kinase panel; settings: Compound concentration 1.0 uM
[3] = biological target: Insulin receptor (Homo sapiens) (UniProt P06213); assay: IR(h), activated Eurofins kinase panel; settings: Compound concentration 1.0 uM
[4] = biological target: Protein kinase C beta type (Homo sapiens) (UniProt P05771); assay: PKCbetaI (h) Eurofins kinase panel; settings: Compound concentration 1.0 uM
[5] = biological target: Ribosomal protein S6 kinase alpha-2 (Homo sapiens, UniProt Q15349); settings: Compound concentration 1.0 uM
[6] = biological target: Insulin-like growth factor 1 receptor (Homo sapiens) (UniProt P08069); assay: IGF-1R(h) Eurofins kinase panel; settings: Compound concentration 1.0 uM
[7] = biological target: T1, Serine/threonine-protein kinase BRSK1 (Homo sapiens) (UniProt Q8TDC3); assay: BrSK1(h) Eurofins kinase panel; settings: Compound concentration 1.0 uM
T1 sequence (whole entry): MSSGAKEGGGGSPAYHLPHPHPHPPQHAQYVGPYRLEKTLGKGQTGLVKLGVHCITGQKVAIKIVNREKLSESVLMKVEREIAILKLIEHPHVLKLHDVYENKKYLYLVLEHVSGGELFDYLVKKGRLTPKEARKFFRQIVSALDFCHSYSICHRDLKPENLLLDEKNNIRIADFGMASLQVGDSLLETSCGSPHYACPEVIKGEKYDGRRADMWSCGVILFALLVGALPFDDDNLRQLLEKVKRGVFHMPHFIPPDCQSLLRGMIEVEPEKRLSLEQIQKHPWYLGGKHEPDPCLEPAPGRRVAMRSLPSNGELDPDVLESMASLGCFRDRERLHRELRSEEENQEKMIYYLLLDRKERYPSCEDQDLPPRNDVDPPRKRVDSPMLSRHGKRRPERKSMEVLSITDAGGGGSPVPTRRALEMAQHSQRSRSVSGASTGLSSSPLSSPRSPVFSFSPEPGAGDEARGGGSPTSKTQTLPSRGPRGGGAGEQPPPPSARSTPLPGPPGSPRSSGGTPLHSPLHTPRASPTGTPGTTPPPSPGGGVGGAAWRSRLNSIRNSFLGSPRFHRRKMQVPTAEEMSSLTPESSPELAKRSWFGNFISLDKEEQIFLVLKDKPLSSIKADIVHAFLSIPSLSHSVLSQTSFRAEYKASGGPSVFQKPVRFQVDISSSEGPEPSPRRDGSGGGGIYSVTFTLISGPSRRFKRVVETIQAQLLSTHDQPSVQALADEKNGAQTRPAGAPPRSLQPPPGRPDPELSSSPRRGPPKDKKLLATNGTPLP

[8] = biological target: Ephrin type-A receptor 2 (Homo sapiens) (UniProt P29317); assay: EphA2(h) Eurofins kinase panel; settings: Compound concentration 1.0 uM
[9] = biological target: Tyrosine-protein kinase ABL1 (Homo sapiens) (UniProt P00519); assay: Abl(h) Eurofins kinase panel; settings: Compound concentration 1.0 uM
[10] = biological target: Proto-oncogene tyrosine-protein kinase ROS (Homo sapiens) (UniProt P08922); assay: Ros(h) Eurofins kinase panel; settings: Compound concentration 1.0 uM
[11] = biological target: Serine/threonine-protein kinase PLK3 (Homo sapiens) (UniProt Q9H4B4); assay: Plk3(h) Eurofins kinase panel; settings: Compound concentration 1.0 uM
[12] = biological target: BDNF/NT-3 growth factors receptor (Homo sapiens) (UniProt Q16620); assay: TrkB(h) Eurofins kinase panel; settings: Compound concentration 1.0 uM
[13] = biological target: T2, Serine/threonine-protein kinase 3 (Homo sapiens) (UniProt Q13188); assay: MST2(h) Eurofins kinase panel; settings: Compound concentration 1.0 uM
T2 sequence (whole entry): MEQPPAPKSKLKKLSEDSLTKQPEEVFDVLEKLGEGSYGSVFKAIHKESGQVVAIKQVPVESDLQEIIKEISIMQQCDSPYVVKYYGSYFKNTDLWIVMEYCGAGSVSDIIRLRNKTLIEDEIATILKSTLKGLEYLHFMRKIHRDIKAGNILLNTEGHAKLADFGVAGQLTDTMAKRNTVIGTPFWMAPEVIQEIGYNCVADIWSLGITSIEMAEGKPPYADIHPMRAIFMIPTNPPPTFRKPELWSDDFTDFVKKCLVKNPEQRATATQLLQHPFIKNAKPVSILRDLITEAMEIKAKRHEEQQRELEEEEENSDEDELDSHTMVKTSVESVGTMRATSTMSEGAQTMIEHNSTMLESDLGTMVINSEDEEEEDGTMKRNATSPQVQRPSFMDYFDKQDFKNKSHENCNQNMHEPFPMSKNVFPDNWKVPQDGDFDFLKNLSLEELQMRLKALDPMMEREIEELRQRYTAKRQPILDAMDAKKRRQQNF

[14] = biological target: Dual specificity tyrosine-phosphorylation-regulated kinase 1A (Homo sapiens) (UniProt Q13627); assay: DYRK1A(h) Eurofins kinase panel; settings: Compound concentration 1.0 uM
[15] = biological target: Tyrosine-protein kinase Fer (Homo sapiens) (UniProt P16591); assay: Fer(h) Eurofins kinase panel; settings: Compound concentration 1.0 uM
[16] = biological target: G protein-coupled receptor kinase 6 (Homo sapiens) (UniProt P43250); assay: GRK6(h) Eurofins kinase panel; settings: Compound concentration 1.0 uM
[17] = biological target: T3, Serine/threonine-protein kinase TAO3 (Homo sapiens) (UniProt Q9H2K8); assay: TAO3(h) Eurofins kinase panel; settings: Compound concentration 1.0 uM
T3 sequence (whole entry): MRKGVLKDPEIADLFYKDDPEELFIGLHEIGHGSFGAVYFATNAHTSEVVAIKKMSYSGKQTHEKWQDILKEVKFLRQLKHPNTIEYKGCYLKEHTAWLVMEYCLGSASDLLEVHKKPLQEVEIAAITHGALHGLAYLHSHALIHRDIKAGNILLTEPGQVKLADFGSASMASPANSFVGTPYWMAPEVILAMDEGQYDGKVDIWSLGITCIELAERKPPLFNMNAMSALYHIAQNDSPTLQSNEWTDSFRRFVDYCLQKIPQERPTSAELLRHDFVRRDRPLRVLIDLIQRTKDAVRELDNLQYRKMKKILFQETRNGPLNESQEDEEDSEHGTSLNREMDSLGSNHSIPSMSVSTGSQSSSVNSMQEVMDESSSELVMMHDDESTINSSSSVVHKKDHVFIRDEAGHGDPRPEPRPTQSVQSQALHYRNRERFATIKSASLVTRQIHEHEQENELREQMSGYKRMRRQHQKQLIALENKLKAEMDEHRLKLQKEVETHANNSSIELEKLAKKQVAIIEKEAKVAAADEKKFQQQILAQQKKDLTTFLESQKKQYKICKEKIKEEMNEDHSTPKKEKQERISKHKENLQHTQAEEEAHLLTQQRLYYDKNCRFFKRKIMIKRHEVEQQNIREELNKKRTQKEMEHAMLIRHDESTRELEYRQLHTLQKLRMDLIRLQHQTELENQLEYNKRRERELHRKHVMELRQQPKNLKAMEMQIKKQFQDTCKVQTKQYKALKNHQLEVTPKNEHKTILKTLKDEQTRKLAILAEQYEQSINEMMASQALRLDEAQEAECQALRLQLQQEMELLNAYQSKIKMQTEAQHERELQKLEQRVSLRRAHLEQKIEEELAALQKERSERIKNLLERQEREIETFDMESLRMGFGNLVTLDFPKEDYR

L-363 = assay: L-363 cell line Proliferation assay; assay type: functional, Homo sapiens; settings: time 3 day

Chain of Serine/threonine-protein kinase PLK3 (Homo sapiens) (Q9H4B4 whole entry, looked up): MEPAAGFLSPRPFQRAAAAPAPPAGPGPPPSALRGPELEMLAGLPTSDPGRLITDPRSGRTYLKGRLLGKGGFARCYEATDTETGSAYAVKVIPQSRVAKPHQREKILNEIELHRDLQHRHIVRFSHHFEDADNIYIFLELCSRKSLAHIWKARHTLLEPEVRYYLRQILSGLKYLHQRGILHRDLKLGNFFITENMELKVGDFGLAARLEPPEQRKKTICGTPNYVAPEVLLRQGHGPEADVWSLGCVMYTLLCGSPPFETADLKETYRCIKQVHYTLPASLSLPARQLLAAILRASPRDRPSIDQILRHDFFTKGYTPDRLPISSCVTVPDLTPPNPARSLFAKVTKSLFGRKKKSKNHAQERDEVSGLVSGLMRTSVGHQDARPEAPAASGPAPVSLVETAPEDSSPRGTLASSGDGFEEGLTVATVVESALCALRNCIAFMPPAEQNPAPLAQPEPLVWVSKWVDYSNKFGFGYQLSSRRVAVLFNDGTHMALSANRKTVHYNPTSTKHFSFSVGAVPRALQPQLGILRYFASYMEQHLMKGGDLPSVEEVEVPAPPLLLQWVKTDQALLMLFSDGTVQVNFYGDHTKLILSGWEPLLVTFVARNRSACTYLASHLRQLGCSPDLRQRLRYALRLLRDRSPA
Chain of G protein-coupled receptor kinase 6 (Homo sapiens) (P43250 whole entry, looked up): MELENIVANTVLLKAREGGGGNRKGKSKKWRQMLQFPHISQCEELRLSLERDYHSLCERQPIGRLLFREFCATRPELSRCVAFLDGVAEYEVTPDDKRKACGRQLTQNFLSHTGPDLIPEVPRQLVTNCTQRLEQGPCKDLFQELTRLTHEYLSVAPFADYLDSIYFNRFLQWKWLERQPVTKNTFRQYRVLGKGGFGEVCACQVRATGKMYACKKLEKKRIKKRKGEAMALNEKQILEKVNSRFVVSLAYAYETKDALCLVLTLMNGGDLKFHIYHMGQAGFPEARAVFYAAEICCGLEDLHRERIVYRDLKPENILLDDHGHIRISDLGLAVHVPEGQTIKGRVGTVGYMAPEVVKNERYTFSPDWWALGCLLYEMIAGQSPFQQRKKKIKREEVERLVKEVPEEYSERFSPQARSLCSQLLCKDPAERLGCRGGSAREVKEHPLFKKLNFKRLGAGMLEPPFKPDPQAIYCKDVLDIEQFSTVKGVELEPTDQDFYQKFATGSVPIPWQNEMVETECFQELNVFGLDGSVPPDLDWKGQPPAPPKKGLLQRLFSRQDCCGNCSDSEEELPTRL
Chain of Ephrin type-A receptor 2 (Homo sapiens) (P29317 whole entry): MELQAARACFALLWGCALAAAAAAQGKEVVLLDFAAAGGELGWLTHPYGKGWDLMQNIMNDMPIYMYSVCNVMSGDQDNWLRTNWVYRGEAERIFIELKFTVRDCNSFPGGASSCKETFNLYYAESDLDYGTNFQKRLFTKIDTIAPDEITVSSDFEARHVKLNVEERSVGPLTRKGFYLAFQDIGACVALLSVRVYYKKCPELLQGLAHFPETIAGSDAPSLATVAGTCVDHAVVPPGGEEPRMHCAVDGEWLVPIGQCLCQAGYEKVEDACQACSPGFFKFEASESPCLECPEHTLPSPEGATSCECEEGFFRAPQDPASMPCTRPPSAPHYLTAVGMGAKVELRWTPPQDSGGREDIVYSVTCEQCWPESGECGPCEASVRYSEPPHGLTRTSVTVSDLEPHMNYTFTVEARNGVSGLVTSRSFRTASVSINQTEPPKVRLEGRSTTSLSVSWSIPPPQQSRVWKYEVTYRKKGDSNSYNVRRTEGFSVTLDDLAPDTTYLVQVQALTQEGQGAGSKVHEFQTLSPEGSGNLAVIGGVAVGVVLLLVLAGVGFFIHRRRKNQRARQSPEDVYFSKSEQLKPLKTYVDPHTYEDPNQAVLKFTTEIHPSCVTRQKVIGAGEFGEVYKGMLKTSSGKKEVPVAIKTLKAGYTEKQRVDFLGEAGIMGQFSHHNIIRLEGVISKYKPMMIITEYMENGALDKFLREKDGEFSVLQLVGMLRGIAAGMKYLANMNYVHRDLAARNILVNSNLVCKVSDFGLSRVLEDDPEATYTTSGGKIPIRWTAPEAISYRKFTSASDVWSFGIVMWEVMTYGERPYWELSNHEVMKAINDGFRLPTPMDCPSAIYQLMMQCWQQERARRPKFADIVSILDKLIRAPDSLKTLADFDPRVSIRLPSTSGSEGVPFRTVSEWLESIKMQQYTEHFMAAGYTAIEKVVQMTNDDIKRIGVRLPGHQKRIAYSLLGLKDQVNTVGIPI
Chain of Beta-2 adrenergic receptor (Homo sapiens) (P07550 whole entry, looked up): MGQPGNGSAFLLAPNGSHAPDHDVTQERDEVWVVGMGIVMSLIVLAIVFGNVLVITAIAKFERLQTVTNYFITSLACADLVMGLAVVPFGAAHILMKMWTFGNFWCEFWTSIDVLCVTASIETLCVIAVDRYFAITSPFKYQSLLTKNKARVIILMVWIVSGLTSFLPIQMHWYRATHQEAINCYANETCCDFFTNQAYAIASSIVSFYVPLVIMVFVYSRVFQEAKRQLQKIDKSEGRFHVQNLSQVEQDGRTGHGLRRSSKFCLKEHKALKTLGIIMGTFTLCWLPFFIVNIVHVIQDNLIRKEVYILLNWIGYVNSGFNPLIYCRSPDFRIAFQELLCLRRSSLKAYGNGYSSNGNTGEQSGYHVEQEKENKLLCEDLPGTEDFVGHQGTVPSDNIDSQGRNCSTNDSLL
Chain of Protein kinase C beta type (Homo sapiens) (P05771 2-671 limits assumed): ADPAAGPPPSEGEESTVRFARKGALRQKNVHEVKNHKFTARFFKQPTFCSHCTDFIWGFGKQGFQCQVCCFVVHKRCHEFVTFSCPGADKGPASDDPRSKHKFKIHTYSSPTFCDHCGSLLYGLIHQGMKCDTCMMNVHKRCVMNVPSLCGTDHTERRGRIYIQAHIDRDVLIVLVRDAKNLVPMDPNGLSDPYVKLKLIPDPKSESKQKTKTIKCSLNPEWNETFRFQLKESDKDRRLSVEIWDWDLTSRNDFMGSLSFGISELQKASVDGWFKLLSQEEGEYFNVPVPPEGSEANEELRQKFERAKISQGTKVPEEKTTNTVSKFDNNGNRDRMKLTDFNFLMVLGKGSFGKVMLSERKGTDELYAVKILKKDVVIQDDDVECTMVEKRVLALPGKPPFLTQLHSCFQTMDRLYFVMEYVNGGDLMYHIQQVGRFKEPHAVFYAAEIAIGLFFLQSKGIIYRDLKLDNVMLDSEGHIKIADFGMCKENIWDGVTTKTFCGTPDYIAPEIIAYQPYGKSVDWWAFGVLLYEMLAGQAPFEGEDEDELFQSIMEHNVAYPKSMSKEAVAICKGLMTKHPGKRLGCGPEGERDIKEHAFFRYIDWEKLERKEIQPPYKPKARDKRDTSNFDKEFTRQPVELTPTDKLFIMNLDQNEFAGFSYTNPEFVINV
Chain of Insulin receptor (Homo sapiens) (P06213 28-758 limits assumed): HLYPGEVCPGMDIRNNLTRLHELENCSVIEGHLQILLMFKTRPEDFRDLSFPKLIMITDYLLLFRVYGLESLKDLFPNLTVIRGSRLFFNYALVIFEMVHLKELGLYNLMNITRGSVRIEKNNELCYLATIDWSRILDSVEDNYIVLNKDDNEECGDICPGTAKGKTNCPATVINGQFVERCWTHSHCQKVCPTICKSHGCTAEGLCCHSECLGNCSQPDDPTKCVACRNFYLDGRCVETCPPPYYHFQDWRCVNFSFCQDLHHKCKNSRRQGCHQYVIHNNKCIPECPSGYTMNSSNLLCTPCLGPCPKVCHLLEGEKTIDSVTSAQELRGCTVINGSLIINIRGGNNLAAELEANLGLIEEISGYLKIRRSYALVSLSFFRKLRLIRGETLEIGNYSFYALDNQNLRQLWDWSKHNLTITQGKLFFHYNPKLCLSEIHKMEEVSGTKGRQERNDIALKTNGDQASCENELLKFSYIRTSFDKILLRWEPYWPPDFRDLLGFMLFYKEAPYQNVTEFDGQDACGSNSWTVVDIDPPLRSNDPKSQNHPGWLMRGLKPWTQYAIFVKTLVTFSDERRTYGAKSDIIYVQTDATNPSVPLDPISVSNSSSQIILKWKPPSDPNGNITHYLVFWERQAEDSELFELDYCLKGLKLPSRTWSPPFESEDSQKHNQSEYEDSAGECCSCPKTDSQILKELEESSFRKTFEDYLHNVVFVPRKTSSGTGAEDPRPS
Chain of Insulin receptor (Homo sapiens) (P06213 763-1382 limits assumed): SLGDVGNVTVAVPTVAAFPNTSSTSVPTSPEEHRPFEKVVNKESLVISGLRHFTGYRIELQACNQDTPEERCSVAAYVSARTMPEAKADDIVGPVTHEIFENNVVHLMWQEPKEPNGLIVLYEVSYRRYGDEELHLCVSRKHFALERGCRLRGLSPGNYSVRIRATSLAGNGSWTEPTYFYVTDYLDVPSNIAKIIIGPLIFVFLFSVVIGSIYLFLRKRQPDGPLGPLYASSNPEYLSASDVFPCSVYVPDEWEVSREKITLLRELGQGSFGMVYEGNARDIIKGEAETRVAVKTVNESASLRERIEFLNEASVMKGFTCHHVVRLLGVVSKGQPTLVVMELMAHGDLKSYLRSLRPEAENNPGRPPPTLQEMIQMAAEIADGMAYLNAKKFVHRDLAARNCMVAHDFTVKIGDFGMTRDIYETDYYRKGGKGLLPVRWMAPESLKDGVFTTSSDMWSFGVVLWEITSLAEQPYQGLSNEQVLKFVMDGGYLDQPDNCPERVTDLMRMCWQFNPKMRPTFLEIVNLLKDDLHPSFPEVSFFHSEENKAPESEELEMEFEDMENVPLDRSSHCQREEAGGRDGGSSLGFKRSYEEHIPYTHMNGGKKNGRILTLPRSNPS

CC1=C(C#N)C(c2ccc3c(c2)c(NC(=O)c2ccccc2C)nn3C)C(C#N)=C(C)N1 [BAY-974]
inactive: inhibition [1] -7.25%

CCc1ccccc1C(=O)Nc1n[nH]c2c(C)c(F)c(C3C(C#N)=C(C)N(C)C(C)=C3C#N)cc12 [BAY-3827]
10.8 µM: Cell Proliferation IC50 (L-363)
inactive: % residual kinase activity [2] 104% | % residual kinase activity [3] 89% | % residual kinase activity [4] 55% | % residual kinase activity [5] 5% | % residual kinase activity [6] 110% | % residual kinase activity [7] 64% | % residual kinase activity [8] 88% | % residual kinase activity [9] 131% | % residual kinase activity [10] 100% | % residual kinase activity [11] 127% | % residual kinase activity [12] 103% | % residual kinase activity [13] 47% | % residual kinase activity [14] 107% | % residual kinase activity [15] 100% | % residual kinase activity [16] 96% | % residual kinase activity [17] 102%
24.1 µM: Cell Proliferation IC50 (NCI-H520)
